Reference: PubChem BioAssay (NCI)
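These data come from cells grown in 96-well plates and exposed to compound for 48 hours at five concentrations. Here, GI50 denotes the concentration required for 50% inhibition of growth. TGI: concentration producing complete growth inhibition.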

Legend:
Experiment in all cases: NCI tumour cell line growth inhibition, 48 h
UACC-257 melanoma = system: UACC-257 melanoma
HCT-15 colon = system: HCT-15 colon
COLO 205 colon = system: COLO 205 colon
HL-60(TB) leukemia = system: HL-60(TB) leukemia
MOLT-4 leukemia = system: MOLT-4 leukemia
SNB-75 CNS = system: SNB-75 CNS
MDA-MB-231 breast = system: MDA-MB-231 breast
SF-268 CNS = system: SF-268 CNS
NCI-H23 lung = system: NCI-H23 lung
DU-145 prostate = system: DU-145 prostate

Compound	TGI (UACC-257 melanoma)	TGI (HCT-15 colon)	TGI (COLO 205 colon)	TGI (HL-60(TB) leukemia)	TGI (MOLT-4 leukemia)	TGI (SNB-75 CNS)	TGI (MDA-MB-231 breast)	TGI (SF-268 CNS)	TGI (NCI-H23 lung)	TGI (DU-145 prostate)	GI50 (UACC-257 melanoma)	GI50 (HCT-15 colon)	GI50 (COLO 205 colon)	GI50 (HL-60(TB) leukemia)	GI50 (MOLT-4 leukemia)	GI50 (SNB-75 CNS)	GI50 (MDA-MB-231 breast)	GI50 (SF-268 CNS)	GI50 (NCI-H23 lung)	GI50 (DU-145 prostate)
COC(=O)/C=C\C(C#N)(C#N)N=Cc1ccc(Br)cc1	28 µM	11.8 µM	9.55 µM	1.27 µM	> 22.4 µM	28.8 µM	8.48 µM	31.1 µM	49.5 µM	16.7 µM										
COc1cc2nc(-c3cccs3)nc(N3C(c4cc(OC)c(OC)c(OC)c4)=NNC(=O)c4ccccc43)c2cc1OC	> 100 µM	47.8 µM	> 100 µM	> 100 µM	> 100 µM	54.2 µM	40.6 µM	> 100 µM	35.4 µM	91.1 µM										
Cc1oc2nc(N(C)C)n3cnnc3c2c1C	> 100 µM	> 100 µM	> 100 µM	> 100 µM	> 100 µM	> 100 µM	> 100 µM	> 100 µM	> 100 µM	> 100 µM										
Nc1ccn(CC(O)c2cc3ccccc3[nH]2)c(=O)n1 (stereo not given)	> 100 µM	> 100 µM	> 100 µM	> 100 µM	> 100 µM	> 100 µM	> 100 µM	> 100 µM	> 100 µM	> 100 µM										
O=C(CN1CCN(c2ccccn2)CC1)N1CCCn2c1nc1ccccc1c2=O	> 100 µM	> 100 µM	> 100 µM	> 100 µM	> 100 µM	> 100 µM	> 100 µM	> 100 µM	> 100 µM	> 100 µM										
COc1ccc(S(=O)(=O)Nc2cc(Sc3cccc4cccnc34)c(O)c3ccccc23)cc1	6.04 µM	8.23 µM	4.12 µM	4.94 µM	8.08 µM	13.5 µM	12.5 µM	9.81 µM	10.8 µM	2.65 µM	1.85 µM	0.477 µM	1.66 µM	1.18 µM	0.563 µM	3.41 µM	0.992 µM	1.55 µM	1.46 µM	0.738 µM
N#Cc1c(N2CCCC2)nsc1Nc1ccccc1	> 100 µM	> 100 µM	> 100 µM	> 100 µM	> 100 µM	> 100 µM	> 100 µM	> 100 µM	> 100 µM	> 100 µM										
C=C1CC(O)C2C(=C)C(=O)OC2C2C(C)C(=O)CC12 (stereo not given)	26.5 µM	17.1 µM	43.5 µM	9.43 µM	39.2 µM	30.3 µM	35.4 µM	45.7 µM	31.8 µM	46.8 µM										
CC(C)(CO)CNc1cc(Cl)nc(N)n1	> 100 µM	> 100 µM	> 100 µM	> 100 µM	> 100 µM	> 100 µM	> 100 µM	> 100 µM	> 100 µM	> 100 µM										
Fc1ccc2c(c1)nc1n2C(c2c(F)cccc2F)SC1 (stereo not given)	> 100 µM	> 100 µM	> 100 µM	70 µM	69 µM	> 100 µM	> 100 µM	> 100 µM	> 100 µM	> 100 µM										
c1ccc(OCc2nnc(CCCCCCCCc3nnc(COc4ccccc4)o3)o2)cc1	> 100 µM	> 100 µM	> 100 µM	> 100 µM	> 100 µM	83.4 µM	> 100 µM	> 100 µM	> 100 µM	> 100 µM										
CC(C)=CCC[C@@H](C)C1=C(O)C(Nc2ccccc2)=C(C)C(=O)C1=O	> 100 µM	> 78.7 µM	> 61.8 µM	24.4 µM	> 72.2 µM	> 85.8 µM	> 100 µM	> 100 µM	98.7 µM	> 74.2 µM										
Cc1ccc2c(c1)Nc1ccccc1P2(=O)O	> 100 µM	> 100 µM	> 100 µM	> 100 µM	> 100 µM	97.7 µM	> 100 µM	> 100 µM	> 100 µM	> 100 µM										
CC(C)OP(=O)(OC(C)C)/C(C#N)=C/c1c[nH]c2ccccc12	> 100 µM	> 100 µM	> 100 µM	> 100 µM	> 100 µM	> 100 µM	> 100 µM	> 100 µM	> 100 µM	> 100 µM										
Nc1ccc(C(=O)O)cc1	> 100 µM	52 µM	> 100 µM	> 100 µM	> 100 µM	> 100 µM	> 100 µM	> 100 µM	> 100 µM	> 100 µM										
COc1ccc(C2NC(N)=C(C#N)C3=C2C(C)CCC3)cc1OC (stereo not given)	> 100 µM	> 100 µM	> 100 µM	> 100 µM	> 100 µM	16.7 µM	> 100 µM	> 100 µM	> 100 µM	> 100 µM										
CC1=NN2CCC(=O)N=C2S1	> 100 µM	> 100 µM	> 100 µM	> 100 µM	> 100 µM	> 100 µM	> 100 µM	> 100 µM	> 100 µM	> 100 µM										
Cc1ccsc1/C=N/Nc1cc(C)c2ccccc2n1	21 µM	28.2 µM	20.9 µM	34.4 µM	35.1 µM	31.4 µM	12.5 µM	42.2 µM	31.3 µM	32 µM										
